# Measured values reported in publication PMC4286194 (Biochemical Journal, 2015).
# Key:
# [1] = system: RAW264.7 macrophages expressing HA-SIK2-WT; assay: IL-10 and Nurr77 mRNA in macrophages expressing wild-type SIK2; assay type: cell-based; conditions: cells expressing wild-type SIK2; drug 1 h, LPS 1 h
# Description: (§1) Primary macrophages were generated by differentiating bone marrow from 6- to 12-week-old C57BL/6 mice for 7 days in Dulbecco's modified Eagle's medium (DMEM) supplemented with 5 ng/ml recombinant M-CSF (R&D systems), 2 mM glutamine, 10% FBS, penicillin and streptomycin. Bone-marrow-derived macrophages were differentiated on non-tissue-culture-treated plastic, harvested and replated at a density of 100000 cells/cm^2 per 0.1 ml on tissue culture-treated plastic in fresh medium before stimulation on day 8. RAW264.7 cells were cultured in DMEM containing 10% FBS, 2 mM glutamine and penicillin and streptomycin. […] Cells were treated for 1 h with or without inhibitors and then stimulated for up to 24 h with either 1 μg/ml Pam3CSK4 or 100 ng/ml LPS.
# (§2) mRNA was extracted from cells using the MicroElute Total RNA kit following the manufacturers’ instructions (Omega Bio-Tek). cDNA was generated from 0.5 μg of total RNA using the iScript cDNA synthesis kit and quantified by quantitative real-time PCR (qPCR) using the SsoFast EvaGreen Supermix on a CFX384 real-time system (Bio-Rad Laboratories). The relative expression of each gene was calculated from CT values using the Pfaffl method and was normalized against the mRNA levels of housekeeping genes including 18S RNA and GAPDH.
# [2] = system: RAW264.7 macrophages expressing HA-SIK2[T96Q]; assay: IL-10 and Nurr77 mRNA in macrophages expressing drug-resistant SIK2; assay type: cell-based; conditions: cells expressing drug-resistant SIK2[T96Q]; drug 1 h, LPS 1 h
# Description: as §1, §2
# TBK1 = biological target: T1, TBK1 (Homo sapiens, UniProt Q9UHD2); assay: Kinase profiling; assay type: biochemical
# T1 sequence (Q9UHD2 1-729): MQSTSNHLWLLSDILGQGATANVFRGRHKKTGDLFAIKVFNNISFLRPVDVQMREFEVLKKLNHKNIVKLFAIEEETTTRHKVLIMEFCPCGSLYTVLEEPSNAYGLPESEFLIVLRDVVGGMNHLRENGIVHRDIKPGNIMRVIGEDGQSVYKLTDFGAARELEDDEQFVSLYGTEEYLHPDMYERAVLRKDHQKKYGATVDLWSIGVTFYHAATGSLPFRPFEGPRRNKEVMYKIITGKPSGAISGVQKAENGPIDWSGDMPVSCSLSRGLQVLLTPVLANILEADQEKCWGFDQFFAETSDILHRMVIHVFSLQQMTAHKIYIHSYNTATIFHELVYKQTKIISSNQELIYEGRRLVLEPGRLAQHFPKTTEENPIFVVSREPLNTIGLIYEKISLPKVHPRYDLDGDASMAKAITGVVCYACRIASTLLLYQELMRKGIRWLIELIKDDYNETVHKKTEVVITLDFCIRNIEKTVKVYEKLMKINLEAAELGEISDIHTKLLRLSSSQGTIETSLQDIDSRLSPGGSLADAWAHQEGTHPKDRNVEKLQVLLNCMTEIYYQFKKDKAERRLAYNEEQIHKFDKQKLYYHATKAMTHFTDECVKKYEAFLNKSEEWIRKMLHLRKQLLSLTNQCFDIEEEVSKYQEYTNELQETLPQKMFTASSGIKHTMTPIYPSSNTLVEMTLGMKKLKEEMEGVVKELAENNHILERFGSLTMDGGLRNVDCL
# ULK2 = biological target: T2, ULK2 (Homo sapiens, UniProt Q8IYT8); assay: Kinase profiling; assay type: biochemical
# T2 sequence (Q8IYT8 1-1036): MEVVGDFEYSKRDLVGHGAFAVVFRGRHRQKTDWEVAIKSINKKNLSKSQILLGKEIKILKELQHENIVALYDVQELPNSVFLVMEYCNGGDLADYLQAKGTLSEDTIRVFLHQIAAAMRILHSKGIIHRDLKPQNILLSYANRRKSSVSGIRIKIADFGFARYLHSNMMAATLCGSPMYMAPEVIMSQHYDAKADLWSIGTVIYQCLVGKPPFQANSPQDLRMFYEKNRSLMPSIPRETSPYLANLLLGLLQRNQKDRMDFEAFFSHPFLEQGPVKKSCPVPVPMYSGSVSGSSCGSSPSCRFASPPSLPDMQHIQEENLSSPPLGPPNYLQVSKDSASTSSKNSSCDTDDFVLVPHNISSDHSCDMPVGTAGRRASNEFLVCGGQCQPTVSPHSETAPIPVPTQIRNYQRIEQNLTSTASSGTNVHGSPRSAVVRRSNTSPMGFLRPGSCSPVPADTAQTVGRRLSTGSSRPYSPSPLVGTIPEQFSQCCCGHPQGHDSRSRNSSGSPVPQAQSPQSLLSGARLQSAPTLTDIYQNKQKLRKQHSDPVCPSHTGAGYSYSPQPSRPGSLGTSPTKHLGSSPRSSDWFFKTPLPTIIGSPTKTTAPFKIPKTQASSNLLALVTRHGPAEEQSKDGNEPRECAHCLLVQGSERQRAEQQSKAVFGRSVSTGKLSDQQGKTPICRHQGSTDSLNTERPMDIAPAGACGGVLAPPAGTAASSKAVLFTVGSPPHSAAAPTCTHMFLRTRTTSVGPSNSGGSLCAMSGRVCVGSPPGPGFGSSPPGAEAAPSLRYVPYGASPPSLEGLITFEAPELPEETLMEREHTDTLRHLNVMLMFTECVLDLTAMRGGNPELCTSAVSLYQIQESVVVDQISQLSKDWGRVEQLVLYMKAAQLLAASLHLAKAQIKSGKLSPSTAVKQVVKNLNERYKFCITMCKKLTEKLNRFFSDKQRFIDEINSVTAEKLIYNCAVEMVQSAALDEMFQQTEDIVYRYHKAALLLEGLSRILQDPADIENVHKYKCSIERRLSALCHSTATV
structure (smiles),measurement,setting,value
"COc1cc(Nc2c(C#N)cnc3cc(OCCCN4CCN(C)CC4)c(OC)cc23)c(Cl)cc1Cl [Bosutinib, bosutinib]",LPS-stimulated CREB-dependent gene transcription including IL-10 and Nurr77,[1],strongly potentiate
same,LPS-stimulated CREB-dependent gene transcription including IL-10 and Nurr77,[2],little effect
same,remaining activity at 0.1 µM,TBK1,75 ± 1%
same,remaining activity at 1 µM,TBK1,29 ± 1%
same,remaining activity at 0.1 µM,ULK2,78 ± 10%
same,remaining activity at 1 µM,ULK2,37 ± 1%
Cc1nc(Nc2ncc(C(=O)Nc3c(C)cccc3Cl)s2)cc(N2CCN(CCO)CC2)n1 [Dasatinib],LPS-stimulated CREB-dependent gene transcription including IL-10 and Nurr77,[1],strongly potentiate
same,LPS-stimulated CREB-dependent gene transcription including IL-10 and Nurr77,[2],little effect
same,remaining activity at 0.1 µM,TBK1,100 ± 1%
same,remaining activity at 1 µM,TBK1,97 ± 10%
same,remaining activity at 0.1 µM,ULK2,101 ± 3%
same,remaining activity at 1 µM,ULK2,91 ± 3%
